From US4691024A, “New mitomycin derivatives, preparation thereof and pharmaceutical compositions containing them” (priority 1984, dated 1987) come the findings set out here.

Series [1] deals with Shigella sonnei ATCC 9290. Kind of series: Antibacterial activity, minimum growth inhibitory concentration by agar dilution method (SS). Type of series: cell-based. The conditions noted are these: ATCC9290, pH 7, read-out: MIC, Shigella sonnei (SS). On the procedure: (§1) The various compounds of formula (I) of Examples 1-26 were tested for antibacterial activity against 6 microorganisms. […]. In this table, the following symbols are used:
SS: Shigella sonnei ATCC 9290
In general terms: In agar dilution, organisms are placed on agar that contains the substance at set levels.

Series [2] concerns peripheral leucocytes. The experiment in a line: Effect on the peripheral leucocytes number in Sarcoma 180 bearing mice. The format is in vivo. The conditions noted are these: Sarcoma 180 bearing ddy mice; intraperitoneal 24 hours after implantation; blood 4 days later. On the procedure:
(§2) The antitumour-activity and toxicity of various compounds of formula (I) were investigated as indicated below.
(4) Effect on the peripheral leucocytes number
Sarcoma 180 solid tumour cells (5×10^6) were subcutaneously implanted into the right arm pit of each mouse (body weight 20±2 g) of a group consisting of 5 male mice (ddy strain). 24 hours after implantation, a test compound was intraperitoneally administered to each animal. 4 days later, blood (each 0.02 ml) was collected from the suborbital plexus vein of each tumour-carrying animal. The collected sample of the blood was dispersed in 9.98 ml of Cell-Kit Seven solution. One drop of saponin solution was added to the sample to dissolve erythrocytes, and then a microcell counter was used to measure the number of leucocytes. On a graph paper, the number of leucocytes was indicated on the y-axis by an arithmetic scale and the dose of the test compound was indicated on the x-axis by a logarithmic scale. The relationship between the number of peripheral leucocytes and the dosage of the test compound was plotted and the dosage corresponding to 4000 peripheral leucocytes/mm^3 (about 1/2 the number of leucocytes of normal mice) was obtained. This value is denoted in Table 5 by WBC4000.

The subject of series [3] is Proteus vulgaris ATCC 6897. Kind of series: Antibacterial activity, minimum growth inhibitory concentration by agar dilution method (PV). Type of series: cell-based. The conditions noted are these: ATCC6897, pH 7, read-out: MIC, Proteus vulgaris (PV). On the procedure: as §1
PV: Proteus vulgaris ATCC 6897

The nature of series [4]: Acute toxicity in mice (LD50, Behrens Kerber's method). The conditions noted are these: mouse, in vivo, ip; ddy mice, single intraperitoneal administration, 14 days observation. The procedure: as §2
Each animal of the test group consisting of 5 ddy mice was administered intraperitoneally once with a test compound. […] The LD50 was determined by Behrens Kerber's method.

For series [5], the system named is Staphylococcus aureus ATCC 6538P. The experiment in a line: Antibacterial activity, minimum growth inhibitory concentration by agar dilution method (SA). Type of series: cell-based. The conditions noted are these: ATCC6538P, pH 7, read-out: MIC, Staphylococcus aureus (SA). The procedure: as §1
SA: Staphylococcus aureus ATCC 6538P

In series [6] the test system is Streptococcus faecalis ATCC 10541. Kind of series: Antibacterial activity, minimum growth inhibitory concentration by agar dilution method (SF). Type of series: cell-based. The conditions noted are these: Enterococcus faecalis, ATCC10541, pH 7, read-out: MIC, Streptococcus faecalis (SF). On the procedure: as §1
SF: Streptococcus faecalis ATCC 10541

The test system of series [7] is Klebsiella pneumoniae ATCC 10031. The experiment in a line: microbe, parasite or virus in culture. The conditions noted are these: ATCC10031, pH 7, read-out: MIC, Klebsiella pneumoniae (KP). Type of series: cell-based. The text has this: In this table, the following symbols are used:
KP: Klebsiella pneumoniae ATCC 10031

Series [8] has as its system Bacillus subtilis 10707. Kind of series: Antibacterial activity, minimum growth inhibitory concentration by agar dilution method (BS). The format is cell-based. The conditions noted are these: Bacillus subtilis, 10707, pH 7, read-out: MIC, Bacillus subtilis (BS). The procedure:
as §1
BS: Bacillus subtilis 10707

Series [9] concerns Sarcoma 180 solid tumour. Kind of series: Anti-tumour activity against Sarcoma 180 solid tumour in mice. Type of series: in vivo. The conditions noted are these: Mus musculus, sc, 168 h; Sarcoma 180 s.c. in ddy mice; into tail vein 24 hours after implantation; volume at 7 days; read-out: ED50 (dose reducing tumour volume to 50% of control). The procedure: as §2
(1) Effect against Sarcoma 180 solid tumour cells
5×10^6 cells of Sarcoma 180 solid tumour were intraperitoneally implanted into ddy mice. 7 days later, ascites cells were sampled. The cells were washed once with a sterilized physiological solution of sodium chloride and were used to prepare a cell suspension containing 5×10^7 cells per ml. On each occasion, 0.1 ml of the cell suspension was subcutaneously implanted into the right arm pit of a male mouse (ddy strain; body weight 20±2 g). The test compound was dissolved in a physiological solution of sodium chloride with or without addition of Tween 80 and was administered into the tail vein of each mouse of a group consisting of 5 mice at a dose of 0.1-0.2 ml, 24 hours after the implantation of the tumour cells.
The anti-tumour activity was determined in the following manner. 7 days after the implantation, the major axis (a) and the minor axis (b) of the tumour were measured to calculate a value of "a×b^2 /2" which corresponds to the volume of the tumour. The anti-tumour activity was expressed by the ratio of the volume of the tumours (T) of the group of animals administered with the test compound to the corresponding volume of tumours (c) of the untreated animals.
(2) Determination of ED50
(The amount needed for reducing the volume of Sarcoma 180 solid tumours in mice to 50% on the basis of the corresponding volume of Sarcoma solid tumours in control untreated animals). On graph paper, T/C (the ratio of the volume of tumours of treated and control animals) was indicated by an arithmetic scale on the longitudinal axis and the administered amount of the test compound was indicated by a logarithmic scale on the lateral axis.
The relationship between the dose and T/C was shown by a straight line determined by the method of least squares, from which a dose corresponding to T/C of 0.5 was obtained.

Broadly, the LD50 is the dose at which mortality reaches 50%. Broadly, the ED50 is the dose that gives a 50% effect, or the effect in half of the subjects.

≈ marks a conversion by molar mass, not a printed value.

For `COc1ccc(SSCCNC2=C(C)C(=O)C3=C(C2=O)[C@@H](COC(N)=O)[C@@]2(OC)[C@H]4N[C@H]4CN32)cc1` [Compound 9, 7-N-[2-(4-Methoxyphenyldithio)ethyl]mitomycin C], the MIC in series [1] was 40 µg/mL (≈ 75.1 µM); in [3], 1.3 µg/mL (≈ 2.44 µM); in series [5] it was less than 0.02 µg/mL; in series [6] it was less than 0.02 µg/mL; in series [7] it was 0.63 µg/mL (≈ 1.18 µM); in series [8] it was less than 0.02 µg/mL. The “WBC4000 (dosage corresponding to 4000 peripheral leucocytes/mm^3)” value (“WBC4000” for short) in series [2] is on record as greater than 10 mg/kg. In addition, in [4], the LD50 at 336 h came out at 5.3 mg/kg. Further, in series [9], the ED50 came out at 7.4 mg/kg.
On to `CO[C@@]12[C@H](COC(N)=O)C3=C(C(=O)C(C)=C(NCCSSc4ccc(F)cc4)C3=O)N1C[C@@H]1N[C@@H]12` [Compound 12, 7-N-[2-(4-Fluorophenyldithio)ethyl]mitomycin C], for which the MIC in series [1] is 20 µg/mL (≈ 38.4 µM); in [3], 0.63 µg/mL (≈ 1.21 µM); in series [5], less than 0.02 µg/mL; in [6] it was less than 0.02 µg/mL; in series [7], 0.31 µg/mL (≈ 0.595 µM); in series [8] it was less than 0.02 µg/mL. The “WBC4000” value in series [2] amounted to 10.4 mg/kg. Besides, in [4], the LD50 at 336 h worked out at 6.8 mg/kg. Also, the 50% effective dose (ED50) in [9] is 3.5 mg/kg.
As to `CC1=C(NCCSSC[C@H](N)C(=O)NCC(=O)O)C(=O)C2=C(C1=O)N1C[C@H]3[C@H](N3C)[C@]1(O)[C@H]2COC(N)=O` (stereo partly drawn) [Compound 21, 7-N-[2-[(Glycino-L-cystein-S-yl)thio]ethyl]mitomycin D], in series [2], the “WBC4000” value worked out at 83.9 mg/kg. For the same compound, the MIC is 13 µg/mL (≈ 22.8 µM) in series [3], 13 µg/mL (≈ 22.8 µM) in series [5], 13 µg/mL (≈ 22.8 µM) in series [6] and 3.1 µg/mL (≈ 5.43 µM) in [8]. This compound also displayed an LD50 at 336 h in series [4] greater than 200 mg/kg. In addition, the 50% effective dose (ED50) in series [9] was 61.1 mg/kg.
Turning to `CO[C@@]12[C@H](COC(N)=O)C3=C(C(=O)C(C)=C(NCCSSc4ccc(Cl)cc4)C3=O)N1C[C@@H]1N[C@@H]12` [Compound 11, 7-N-[2-(4-Chlorophenyldithio)ethyl]mitomycin C], the MIC in series [1] is 10 µg/mL (≈ 18.6 µM); in series [3], 0.63 µg/mL (≈ 1.17 µM); in [5], less than 0.01 µg/mL; in [6], 0.04 µg/mL (≈ 0.0745 µM); in [7] it was 0.63 µg/mL (≈ 1.17 µM); in series [8], less than 0.01 µg/mL. Also, the “WBC4000” value in series [2] is on record as greater than 10 mg/kg. In [4], this compound returned an LD50 at 336 h of 9 mg/kg. Further, the ED50 in series [9] came to 4.5 mg/kg.
`CO[C@@]12[C@H](COC(N)=O)C3=C(C(=O)C(C)=C(NCCSSc4ccc(N)cc4)C3=O)N1C[C@@H]1N[C@@H]12` [Compound 4, 7-N-[2-(4-aminophenyldithio)ethyl]mitomycin C]: the MIC in series [1] was greater than 20 µg/mL; in series [3] it was 5 µg/mL (≈ 9.66 µM); in [5], 0.08 µg/mL (≈ 0.155 µM); in [6], 0.04 µg/mL (≈ 0.0773 µM); in series [7] it was 1.3 µg/mL (≈ 2.51 µM); in series [8] it was 0.02 µg/mL (≈ 0.0386 µM). In addition, the “WBC4000” value in series [2] is reported as greater than 10 mg/kg. In series [4], this compound returned an LD50 at 336 h of 9 mg/kg. Further, the ED50 in [9] is 5.1 mg/kg.
Consider `CC1=C(NCCSSC[C@H](N)C(=O)O)C(=O)C2=C(C1=O)N1C[C@H]3[C@H](N3C)[C@]1(O)[C@H]2COC(N)=O` (stereo partly drawn) [Compound 15, 7-N-[2-[(L-Cystein-S-yl)thio]ethyl]mitomycin D], for which, in series [2], the “WBC4000” value is listed as 81.9 mg/kg. The MIC was 13 µg/mL (≈ 25.3 µM) in [3], 13 µg/mL (≈ 25.3 µM) in series [5], 13 µg/mL (≈ 25.3 µM) in series [6] and 6.3 µg/mL (≈ 12.3 µM) in series [8]. This compound also displayed a median lethal dose (LD50) at 336 h in [4] of 135 mg/kg. The ED50 in series [9] stood at 54 mg/kg.
Regarding `CC(=O)Nc1ccc(SSCCNC2=C(C)C(=O)C3=C(C2=O)[C@H](COC(N)=O)[C@@]2(O)[C@@H]4[C@H](CN32)N4C)cc1` (stereo partly drawn) [Compound 7, 7-N-[2-(4-Acetamidophenyldithio)ethyl]mitomycin D], the “WBC4000” value in series [2] is listed as 45.5 mg/kg. Also, the MIC in series [3] is greater than 40 µg/mL; in series [5], 10 µg/mL (≈ 17.9 µM); in series [6], 5 µg/mL (≈ 8.93 µM); in series [8], 5 µg/mL (≈ 8.93 µM). Moreover, in [4], the LD50 at 336 h amounted to 46.3 mg/kg. The ED50 in series [9] is greater than 25 mg/kg.
